The first test deals with T1, FXR (Homo sapiens, UniProt Q96RI1).
T1 construct: 5 μL of 20 nM FXR-LBD Complete Coregulator buffer G; purchased ThermoFisher PV4833
T1 sequence (Q96RI1 262-486 limits assumed): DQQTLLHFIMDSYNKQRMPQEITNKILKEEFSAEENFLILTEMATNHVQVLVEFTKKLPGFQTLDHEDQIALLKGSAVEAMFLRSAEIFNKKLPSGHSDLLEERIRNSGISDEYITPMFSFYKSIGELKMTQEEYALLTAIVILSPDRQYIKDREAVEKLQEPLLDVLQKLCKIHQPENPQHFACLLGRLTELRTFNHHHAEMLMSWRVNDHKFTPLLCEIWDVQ
Briefly: FXR antagonist screening by TR-FRET (LanthaScreen TR-FRET FXR co-activation assay kit). It counts as biochemical. The settings on record: Table 1.1, FXR antagonistic activity; TR-FRET with CDCA; geometric means of at least two independent runs. In short, it runs like this:
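FXR-LBD (20 nM working solution) mixed with compound, CDCA (200 μM working solution) as agonist, Fluorescein-SRC2-2 and Tb-anti-GST antibody in Coregulator buffer G; 10 h at room temperature. Coactivator recruitment read by TR-FRET, triplicate wells.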
Background: In TR-FRET formats the signal depends on donor and acceptor labels being close together.
Usually IC50 stands for the midpoint of a concentration-inhibition curve. Read a high IC50 as weaker potency. In turn, `CCOC(=O)c1oc2ccc(S(=O)(=O)N(CCc3ccccc3)Cc3c(F)cccc3C(F)(F)F)cc2c1C` [Example M4-48, ethyl 3-methyl-5-(N-(2-fluoro-6-(trifluoromethyl)benzyl)-N-phenethylsulfamoyl)benzofuran-2-carboxylate] displayed a half-maximal inhibitory concentration (IC50) of 50 to 100 µM.
`CCOC(=O)c1oc2ccc(S(=O)(=O)N(CCc3ccccc3)Cc3ccccc3[N+](=O)[O-])cc2c1C` [Example M4-19, ethyl 3-methyl-5-(N-(2-nitrobenzyl)-N-phenethylsulfamoyl)benzofuran-2-carboxylate]: the IC50 lay in the range of 50 to 100 µM.
In turn, `CCOC(=O)c1oc2ccc(S(=O)(=O)N(CCc3ccccc3)Cc3ccc(N4CCOCC4)cc3)cc2c1C` [Example M8-79, ethyl 3-methyl-5-(N-(4-morpholinobenzyl)-N-phenethylsulfamoyl)benzofuran-2-carboxylate] yielded an IC50 of 50 to 100 µM.
`CCOC(=O)c1oc2ccc(S(=O)(=O)N(CCc3ccccc3)Cc3cccc(C)c3)cc2c1C` [Example M4-23, ethyl 3-methyl-5-(N-(3-methylbenzyl)-N-phenethylsulfamoyl)benzofuran-2-carboxylate] had an IC50 of 50 to 100 µM.
The same measure, in the same setting: as for `CCOC(=O)c1oc2ccc(S(=O)(=O)N(CCc3ccccc3)Cc3ccccc3N3CCN(Cc4ccccc4)CC3)cc2c1C` [Example M10-104, ethyl 3-methyl-5-(N-(2-(4-benzylpiperazin-1-yl)benzyl)-N-phenethylsulfamoyl)benzofuran-2-carboxylate], the figure is 50 to 100 µM; as for `CCOC(=O)c1oc2ccc(S(=O)(=O)N(CCc3ccccc3)Cc3ccc(OC(F)(F)F)cc3)cc2c1C` [Example M4-34, ethyl 3-methyl-5-(N-(4-(trifluoromethoxy)benzyl)-N-phenethylsulfamoyl)benzofuran-2-carboxylate], 50 to 100 µM; as for `CCOC(=O)c1oc2ccc(S(=O)(=O)N(CCc3ccccc3)c3ccc(N4CCN(C(=O)CC(C)(C)C)CC4)cc3)cc2c1C` [Example M8-66, ethyl 3-methyl-5-(N-(4-(4-(3,3-dimethylbutyryl)piperazin-1-yl)phenyl)-N-phenethylsulfamoyl)benzofuran-2-carboxylate], 50 to 100 µM.
Still for that read-out and setting: as for `CCOC(=O)c1oc2ccc(S(=O)(=O)N(CCc3ccccc3)c3cccc(N4CCN(C)CC4)c3)cc2c1C` [Example M8-78, ethyl 3-methyl-5-(N-(3-(4-methylpiperazin-1-yl)phenyl)-N-phenethylsulfamoyl)benzofuran-2-carboxylate], the figure is 50 to 100 µM; as for `CCOC(=O)c1oc2ccc(S(=O)(=O)N(CCc3ccccc3)Cc3ccc(C#N)cc3)cc2c1C` [Example M4-33, ethyl 3-methyl-5-(N-(4-cyanobenzyl)-N-phenethylsulfamoyl)benzofuran-2-carboxylate], 50 to 100 µM.
Compound `CCOC(=O)c1oc2ccc(S(=O)(=O)N(CCc3ccccc3)Cc3cccc([N+](=O)[O-])c3)cc2c1C` [Example M4-25, ethyl 3-methyl-5-(N-(3-nitrobenzyl)-N-phenethylsulfamoyl)benzofuran-2-carboxylate] gave an IC50 of 50 to 100 µM.
Consider `CCOC(=O)c1oc2ccc(S(=O)(=O)N(CCc3ccccc3)c3ccccc3N3CCN(C(=O)CC(C)(C)C)CC3)cc2c1C` [Example M10-94], for which the IC50 was 50 to 100 µM.
The same measure, in the same setting: as for `CCOC(=O)c1oc2ccc(S(=O)(=O)N(CCc3ccccc3)Cc3ccc(F)cc3F)cc2c1C` [Example M4-51, ethyl 3-methyl-5-(N-(2,4-difluorobenzyl)-N-phenethylsulfamoyl)benzofuran-2-carboxylate], the figure is 50 to 100 µM.

Still in this test, the particulars now being: Table 1.2, FXR antagonistic activity; TR-FRET with CDCA; geometric means of at least two independent runs.
Compound `CCOC(=O)c1oc2ccc(S(=O)(=O)N(CCc3ccccc3)c3ccccc3N3CCN(C(=O)c4ccc[nH]4)CC3)cc2c1C` [Example M10-124, Ethyl 5-(N-(2-(4-(1H-pyrrole-2-carbonyl)piperazin-1-yl)phenyl)-N-phenethylsulfamoyl)-3-methylbenzofuran-2-carboxylate] yielded an IC50 of 50 to 100 µM.
In turn, `CCOC(=O)c1sc2ccc(S(=O)(=O)N(CCc3ccccc3)c3ccccc3N3CCN(C(=O)c4sccc4Br)CC3)cc2c1C` [Example M10-158, ethyl 5-(N-(2-(4-(3-bromothiophene-2-carbonyl)piperazin-1-yl)phenyl)-N-phenethylsulfamoyl)-3-toluothiophene-2-carboxylate] displayed a half-inhibitory concentration (IC50) of 50 to 100 µM.
Still for that read-out and setting: with `CCOC(=O)c1oc2ccc(S(=O)(=O)N(CCc3ccccc3)c3ccccc3N3CCN(C(=O)c4cc(C)cs4)CC3)cc2c1C` [Example M10-140, Ethyl 5-(N-(2-(4-(4-methylthiophene-2-formyl)piperazin-1-yl)phenyl)-N-phenethylsulfamoyl)3-methylbenzofuran-2-carboxylate] the figure was 50 to 100 µM.
The same measure, in the same setting: with `CCOC(=O)c1sc2ccc(S(=O)(=O)N(CCC3CCCCC3)c3ccccc3N3CCN(C(=O)c4sccc4Br)CC3)cc2c1C` [Example M10-180, Ethyl 5-(N-(2-(4-(3-bromothiophene-2-carbonyl)piperazin-1-yl)phenyl)-N-(2-cyclohexylethyl)sulfamoyl)-3-methylbenzothiophene-2-carboxylate] the figure was 50 to 100 µM; with `Cc1c(C(=O)O)sc2ccc(S(=O)(=O)N(CCc3ccc(Cl)cc3)c3ccccc3N3CCN(C(=O)c4sccc4Br)CC3)cc12` [Example F27-S166, 5-(N-(2-(4-(3-bromothiophene-2-carbonyl)piperazin-1-yl)phenyl)-N-(4-chlorophenylethyl)sulfamoyl)-3-methylbenzothiophene-2-carboxylic], 0.1 to 10 µM; with `Cc1c(C(=O)O)oc2ccc(S(=O)(=O)N(CCc3ccccc3)c3ccccc3N3CCN(C(=O)C4CCCC4)CC3)cc12` [Example F27-S122, 5-(N-(2-(4-(cyclopentanecarbonyl)piperazin-1-yl)phenyl)-N-phenethylsulfamoyl)-3-methylbenzofuran-2-carboxylic acid], 0.1 to 10 µM.
On to `CCOC(=O)c1oc2ccc(S(=O)(=O)N(CCc3ccccc3)c3ccccc3N3CCN(C(=O)c4ccccc4Cc4ccccc4)CC3)cc2c1C` [Example M10-134, Ethyl 5-(N-(2-(4-(2-benzylbenzoyl)piperazin-1-yl)phenyl)-N-phenethylsulfamoyl)3-methylbenzofuran-2-carboxylate], for which the half-inhibitory concentration (IC50) was 50 to 100 µM.
On the same count and under the same terms, with `Cc1ccc(CCN(c2ccccc2N2CCN(C(=O)c3sccc3Br)CC2)S(=O)(=O)c2ccc3sc(C(=O)O)c(C)c3c2)cc1` [Example F27-S167, 5-(N-(2-(4-(3-bromothiophene-2-carbonyl)piperazin-1-yl)phenyl)-N-(4-methylphenylethyl)sulfamoyl)-3-methylbenzothiophene-2-carboxylic acid] the figure was 0.1 to 10 µM; with `CCOC(=O)c1oc2ccc(S(=O)(=O)N(CCc3ccccc3)c3ccccc3N3CCN(C(=O)c4cccc(C)c4)CC3)cc2c1C` [Example M10-108, ethyl 3-methyl-5-(N-(2-(4-(3-methylbenzoyl)piperazin-1-yl)phenyl)-N-phenethylsulfamoyl)benzofuran-2-carboxylate], 50 to 100 µM.
Consider `CCOC(=O)c1oc2ccc(S(=O)(=O)N(CCc3ccccc3)c3ccccc3N3CC4(CCN(C(=O)c5sccc5Br)CC4)C3)cc2c1C` [Example M10-149, Ethyl 5-(N-(2-(7-(3-bromothiophene-2-carbonyl)-2,7-diazaspiro[3.5]nonan-2-yl)phenyl)-N-phenethylsulfamoyl)-3-methylbenzofuran-2-carboxylate], for which the IC50 lay in the range of 50 to 100 µM.
For the compound `Cc1c(C(=O)O)oc2ccc(S(=O)(=O)N(CCc3ccccc3)c3ccccc3N3CC4CC3CN4C(=O)c3sccc3Br)cc12` (stereo not shown) [Example F27-S157, 5-(N-(2-(5-(3-bromothiophene-2-formyl)-2,5-diazabicyclo[2.2.1]hept-2-yl)phenyl)-N-phenethylsulfamoyl)3-methylbenzofuran-2-carboxylic acid], the IC50 lay in the range of 0.1 to 10 µM.
On the same count and under the same terms, with `Cc1c(C(=O)O)oc2ccc(S(=O)(=O)N(CCc3ccccc3)c3ccccc3N3CC4(CCN(C(=O)c5sccc5Br)CC4)C3)cc12` [Example F27-S149, 5-(N-(2-(7-(3-bromothiophene-2-carbonyl)-2,7-diazaspiro[3.5]nonan-2-yl)phenyl)-N-phenethylsulfamoyl)-3-methylbenzofuran-2-carboxylic acid] the figure was 0.1 to 10 µM; with `CCOC(=O)c1sc2ccc(S(=O)(=O)N(Cc3ccccc3)c3ccccc3N3CCN(C(=O)c4sccc4Br)CC3)cc2c1C` [Example M10-181, Ethyl 5-(N-benzyl-N-(2-(4-(3-bromothiophene-2-carbonyl)piperazin-1-yl)phenyl)sulfamoyl)-3-methylbenzothiophene-2-carboxylate], 50 to 100 µM; with `CCOC(=O)c1oc2ccc(S(=O)(=O)N(CCc3ccccc3)c3ccccc3N3CCN(C(=O)c4sccc4Br)C(C)C3)cc2c1C` (stereo not shown) [Example M10-156, Ethyl 5-(N-(2-(4-(3-bromothiophene-2-formyl)-3-methylpiperazin-1-yl)phenyl)-N-phenethylsulfamoyl)3-methylbenzofuran-2-carboxylate], 50 to 100 µM.
Same read-out and setting: with `CCOC(=O)c1oc2ccc(S(=O)(=O)N(CCc3ccccc3)c3ccccc3N3CCN(C(=O)C4CCCC4)CC3)cc2c1C` [Example M10-122, Ethyl 5-(N-(2-(4-(cyclopentanecarbonyl)piperazin-1-yl)phenyl)-N-phenethylsulfamoyl)-3-methylbenzofuran-2-carboxylate] the figure was 50 to 100 µM; with `CCOC(=O)c1oc2ccc(S(=O)(=O)N(CCc3ccccc3)c3ccccc3N3CCN(C(=O)c4ncc[nH]4)CC3)cc2c1C` [Example M10-142, Ethyl 5-(N-(2-(4-(1H-imidazole-2-formyl)piperazin-1-yl)phenyl)-N-phenethylsulfamoyl)3-methylbenzofuran-2-carboxylate], 50 to 100 µM.
